Assays:
[1] = Analysis of physicochemical properties of tripartin
[2] = system: KDM2/7; assay: Immunoblotting of histone from tripartin-treated HeLa cell line: KDM2/7 inhibitory activity (H3K36me3); assay type: cell-based, human; conditions: 10 μM, 24 hours, vs DMSO control
Protocol: (§1) HeLa cell line, which is a uterine cervical cancer cell line, was treated with tripartin and then histone was extracted from the tripartin-treated HeLa cell. A histone methylation antibody which may verify activity of the KDM was analyzed by immunoblotting to measure the KDM inhibiting effect.
(§2) 0.1% (w/v) DMSO (control group), or 0.1% (w/v) DMSO and 10 μM tripartin (experimental group) was added to the HeLa cell line, which was then incubated at 37° C. for 24 hours. Subsequently, proteins were extracted from the HeLa cell line, and the extracted proteins underwent electrophoresis with 15% SDS-polyacrylamide. Anti-histone H3 antibody (MILLIPORE), anti-H3K9me3 antibody (MILLIPORE), anti-H3K9me2 antibody (MILLIPORE), anti-H3K3me1 antibody (MILLIPORE), anti-H3K27me3 antibody (MILLIPORE), anti-H3K4me3 antibody (MILLIPORE), anti-H3K36me3 antibody (MILLIPORE), anti-H3K79me2 antibody (MILLIPORE), and anti-H3ace antibody (MILLIPORE) were used to perform immunoblotting. […] Herein, H”, “K”, “me”, and “ace” refer to histone, lysine (K), methylation, and acetylation, respectively. The number next to “H” refers to a histone number, the number next to “K” refers to the histone amino acid number, and the number next to “me” refers to the number of methylation. For example, “H3K9me3” refers to histone H3 with a tri-methylated lysine in the ninth position. […]

[3] = system: HeLa cell line; assay: Immunoblotting of histone from tripartin-treated HeLa cell line: other histone marks (H3, H3K79me2, H3ace); assay type: cell-based, human; conditions: 10 μM, 37° C., 24 hours, vs DMSO control
Protocol: as §1
(§3) 0.1% (w/v) DMSO (control group), or 0.1% (w/v) DMSO and 10 μM tripartin (experimental group) was added to the HeLa cell line, which was then incubated at 37° C. for 24 hours. Subsequently, proteins were extracted from the HeLa cell line, and the extracted proteins underwent electrophoresis with 15% SDS-polyacrylamide. Anti-histone H3 antibody (MILLIPORE), anti-H3K9me3 antibody (MILLIPORE), anti-H3K9me2 antibody (MILLIPORE), anti-H3K3me1 antibody (MILLIPORE), anti-H3K27me3 antibody (MILLIPORE), anti-H3K4me3 antibody (MILLIPORE), anti-H3K36me3 antibody (MILLIPORE), anti-H3K79me2 antibody (MILLIPORE), and anti-H3ace antibody (MILLIPORE) were used to perform immunoblotting. […] Herein, H”, “K”, “me”, and “ace” refer to histone, lysine (K), methylation, and acetylation, respectively. The number next to “H” refers to a histone number, the number next to “K” refers to the histone amino acid number, and the number next to “me” refers to the number of methylation. For example, “H3K9me3” refers to histone H3 with a tri-methylated lysine in the ninth position.
(§4) KDM3, KDM4, KDM6, KDM5, and KDM2/7 demethylate H3K9me2/1, H3K9me3, H3K27, H3K4, and H3K36, respectively.

[4] = system: KDM5; assay: Immunoblotting of histone from tripartin-treated HeLa cell line: KDM5 inhibitory activity (H3K4me3); assay type: cell-based, human; conditions: 10 μM, 24 hours, vs DMSO control
Protocol: as §1, §2

[5] = system: KDM6; assay: Immunoblotting of histone from tripartin-treated HeLa cell line: KDM6 inhibitory activity (H3K27me3); assay type: cell-based, human; conditions: 10 μM, 24 hours, vs DMSO control
Protocol: as §1, §2

[6] = system: KDM3; assay: Immunoblotting of histone from tripartin-treated HeLa cell line: KDM3 inhibitory activity (H3K9me2/1); assay type: cell-based, human; conditions: 10 μM, 24 hours, vs DMSO control
Protocol: as §1, §3, §4

[7] = system: KDM4; assay: Immunoblotting of histone from tripartin-treated HeLa cell line: KDM4 inhibitory activity (H3K9me3); assay type: cell-based, human; conditions: 10 μM, 24 hours
Protocol: as §1, §2

Solubility ([1]; intermediate organic solvent such as methanol and acetone): well dissolved
Stability of the solid ([1]; room temperature): stable at room temperature
SMILES: O=C1C[C@@](O)(C(Cl)Cl)c2c(O)cc(O)cc21 [tripartin]
H3K36me3 level (immunoblotting) ([2]; 37° C.): not increased
KDM2/7 inhibitory effect [2]: No inhibitory effect
H3K79me2 level (immunoblotting) [3]: not increased
H3ace level (immunoblotting) [3]: not increased
H3 level (immunoblotting) [3]: not increased
H3K4me3 level (immunoblotting) ([4]; 37° C.): not increased
KDM5 inhibitory effect [4]: No inhibitory effect
H3K27me3 level (immunoblotting) ([5]; 37° C.): not increased
KDM6 inhibitory effect [5]: No inhibitory effect
H3K9me1 level (immunoblotting) ([6]; 37° C.): not increased
H3K9me2 level (immunoblotting) ([6]; 37° C.): not increased
KDM3 inhibitory effect [6]: No inhibitory effect
H3K9me3 level (immunoblotting) ([7]; 37° C., vs DMSO control): increased significantly
KDM4 inhibitory effect ([7]; in comparison to the DMSO control group): inhibitory effect

From patent US9650325B2, “Compound, preparing method thereof, and use thereof as inhibitors of histone demethylase” (SNU R&DB FOUNDATION, priority 2013, dated 2017)
